Experimental data from patent US20240415828A1, “TLR7 AGONIST AND COMBINATIONS FOR CANCER TREATMENT” (BIONTECH SE, priority 2021, published 2024).

Assays:
[1] = system: CT26 colon carcinoma cells; assay: CT26 tumor model, BNT411 alone (Example 3); format: in vivo, mouse
Description: FIG. 4. Anti-tumoral efficacy of BNT411 alone in a tumor mouse model. Mice (n=12 or 13 per group) subcutaneously inoculated with 5×10^5 CT26 colon carcinoma cells were used as tumor mouse model. BNT411 was administered i.v. at a dose level of 3 mg/kg eight times with 4 to 5 days interval (on days 14, 19, 23, 28, 33, 37, 42, and 47). A control group (n=13) received vehicle alone. Adaptive immunity was evaluated by analyzing gp70-antigen-specific T cell populations in blood and splenocytes 3 and 5 weeks after the first study drug administration. (A) Dosing schedule. (B) Graph showing the tumor volumes vs. days after inoculation. Group mean tumor volumes for all live animals are shown. Additionally, tumor volumes of animals that were euthanized due to tumor load were carried forward for as long as they were larger than the group median tumor volume (SEM: standard error of the mean; LOCF: last observation carried forward values).
(§1) Serum levels of IFNα were measured by sandwich ELISA (Pbl Assay Systems) according to manufacturer's instructions.
BALB/c mice were inoculated s.c. with 2.5×10^5−5×10^5 CT26-WT into the flank, respectively. Once tumors reached palpable sizes, mice were randomly divided into treatment and control groups. Tumor volume was measured unblinded with a caliper and calculated using the formula (a×b^2)/2 (a being the largest and b being the smallest diameter of the tumor). Tumor growth was documented as mean tumor size with standard error disregarding single distant outliers. Treatment was initiated after 7-10 d with tumors having reached an average volume of about 10 mm^3. 3 mg/kg (75 μg/mouse; BALB/c mice) BNT411 was administered by i.v. injection to the retro-orbital venous plexus. Control groups received an equal volume of 100 μl saline vehicle (0.1% 1 M HCl, 0.1% 1 M NaOH, 99.8% isotonic NaCl solution pH 5.63).
Eight doses of BNT411 were administered i.v. at a dose level of 3 mg/kg eight times with 4 to 5 days interval (on days 14, 19, 23, 28, 33, 37, 42, and 47); cf., FIG. 4A. […] A control group (n=13) received vehicle alone. Adaptive immunity was evaluated by analyzing gp70-antigen-specific T cell populations in blood and splenocytes 3 and 5 weeks after the first study drug administration. Gp70 is the immune dominant CD8^+ T-cell recognized antigen of the CT26 tumor model.

BALB/c mice = assay: In vivo cytokine release in BALB/c mice (IFNa ELISA); set-up: species or system mouse; details: 3 mg/kg retro-orbital vs 5, 10, 15 mg/kg; blood 1 h after application
Description: FIG. 2. In vivo cytokine release in BALB/c mice upon administration of BNT411. Female BALB/c mice were retro-orbitally administered with doses of 3, 5, 10, and 15 mg/kg BNT411. Blood samples were drawn 1 h after compound application and analyzed with mouse IFNa ELISA.
as §1
Female BALB/c mice were retro-orbitally administered with doses of 3, 5, 10, and 15 mg/kg BNT411. Blood samples were drawn 1 h after compound application and analyzed with mouse IFNa ELISA.

For COCCc1nc2c(N)nc3ccccc3c2n1CCCCN(C(C)=O)C1CCOCC1 [BNT411], the “tumor growth inhibition, test/control value” ([1]; 3 mg/kg i.v. eight times, day 35) was 43.3%, the animals still alive ([1]; 3 mg/kg i.v., day 49, last day of the experiment) was 8 of 13 and the “increase in blood IFNα levels compared with the control group” value ([1]; 1 h after the first dosing, 3 mg/kg i.v.) was 50 fold. For the same molecule, the “frequency of gp70+ T-cells in blood” value ([1]; day 35) was 8.72%, the “frequency of gp70+ T-cells in splenocytes” value ([1]; day 50) was 0.76% and the “blood parameters (alanine transaminase, aspartate transaminase, creatine kinase, glutamate dehydrogenase, lactate dehydrogenase, bilirubin) vs control group” value ([1]; serum, day 19) was “comparable”. The IFNa secretion (BALB/c mice) was “stronger IFNa secretion as compared to higher BNT411 doses”.
